Assay [1] concerns the target T1, Acyl-CoA:cholesterol acyltransferase (Oryctolagus cuniculus, UniProt Q95214).
T1 sequence (Q95214 whole entry): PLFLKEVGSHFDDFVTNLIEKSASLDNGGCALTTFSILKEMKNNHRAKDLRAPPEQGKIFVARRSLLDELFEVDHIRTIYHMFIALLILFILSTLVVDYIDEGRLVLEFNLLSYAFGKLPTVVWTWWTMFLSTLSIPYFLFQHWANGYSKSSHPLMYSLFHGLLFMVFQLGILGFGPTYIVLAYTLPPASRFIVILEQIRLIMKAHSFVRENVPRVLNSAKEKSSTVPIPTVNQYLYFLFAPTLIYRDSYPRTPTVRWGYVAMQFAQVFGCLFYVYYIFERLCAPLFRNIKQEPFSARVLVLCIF
Kind of assay: Compound was evaluated for inhibitory activity against Acyl coenzyme A:cholesterol acyltransferase in microsomes from rabbit liver.

The target of assay [2] is T1, Acyl-CoA:cholesterol acyltransferase. Put plainly: Compound was evaluated for inhibitory activity against Acyl coenzyme A:cholesterol acyltransferase in microsomes from rabbit intestine.
For assay [3] the target is unchanged. Put plainly: Compound was evaluated for inhibitory activity against Acyl coenzyme A:cholesterol acyltransferase in microsomes from rabbit adrenal.
Assay [4] has the same target. Put plainly: Compound was evaluated for inhibitory activity against Acyl coenzyme A:cholesterol acyltransferase in microsomes from rabbit artery.

One may read the IC50 as the concentration needed to halve the response being measured. With `Cc1cc(C)n(CCCCC[S+]([O-])c2nc(-c3ccccc3)c(-c3ccccc3)[nH]2)n1` (centres undefined), the IC50 in assay [1] turned out to be 122 nM; in assay [2] it was 370 nM; in assay [3] it was 208 nM; in assay [4], 245 nM.

The values are drawn from ChEMBL document CHEMBL1152120, “RP 73163: A bioavailable alkylsulphinyl-diphenylimidazole ACAT inhibitor” (Bioorg Med Chem Lett, 1996).
